System: E. faecalis (CL 4877)
Assay: Zone of inhibition screen, 96 well agar array format
Assay type: cell-based
Parameters: scale not given here
Conditions: zone of inhibition relative to 1 mg/ml stock solution of p-chlorobiphenylvancomycin
Procedure: The antibacterial activity of each of the compounds against the bacterial strains E. faceium (ATCC 49624), S. epidermidis (ATCC 12228), S. aureus (ATCC 29213), E. faecalis (CL 4877) and E. faecalis (ATCC 292121) was tested. Each of the compounds was screened in a 96 will agar array format.

## CC1OC(OC2C(Oc3c4cc5cc3Oc3ccc(cc3Cl)C(O)C3NC(=O)C(NC(=O)C5NC(=O)C(CC(N)=O)NC(=O)C(NC(=O)C(O)CN)C(O)c5ccc(c(Cl)c5)O4)c4ccc(O)c(c4)-c4c(O)cc(O)cc4C(C(=O)O)NC3=O)OC(CO)C(O)C2O)CC(C)(NCc2ccc(-c3ccc(Cl)cc3)cc2)C1O (mixture of isomers) [Compound 60]
  zone score, E. faecalis CL 4877: 2

## CC(=O)NCCCCC(NC(C)=O)C(=O)NC1C(=O)NC(CC(N)=O)C(=O)NC2C(=O)NC3C(=O)NC(C(=O)NC(C(=O)O)c4cc(O)cc(O)c4-c4cc3ccc4O)C(O)c3ccc(c(Cl)c3)Oc3cc2cc(c3OC2OC(CO)C(O)C(O)C2OC2CC(C)(NCc3ccc(-c4ccc(Cl)cc4)cc3)C(O)C(C)O2)Oc2ccc(cc2Cl)C1O (mixture of isomers) [Compound 114]
  zone score, E. faecalis CL 4877: 2

## CC1OC(OC2C(Oc3c4cc5cc3Oc3ccc(cc3Cl)C(O)C(NC(=O)C3OC(O)C(O)C(O)C3O)C(=O)NC(CC(N)=O)C(=O)NC5C(=O)NC3C(=O)NC(C(=O)NC(C(=O)O)c5cc(O)cc(O)c5-c5cc3ccc5O)C(O)c3ccc(c(Cl)c3)O4)OC(CO)C(O)C2O)CC(C)(NCc2ccc(-c3ccc(Cl)cc3)cc2)C1O (mixture of isomers) [Compound 147]
  zone score, E. faecalis CL 4877: 2

## CC1OC(OC2C(Oc3c4cc5cc3Oc3ccc(cc3Cl)C(O)C(NC(=O)C3OC(O)C(O)C(O)C3O)C(=O)NC(CC(N)=O)C(=O)NC5C(=O)NC3C(=O)NC(C(=O)NC(C(=O)O)c5cc(O)cc(O)c5-c5cc3ccc5O)C(O)c3ccc(c(Cl)c3)O4)OC(CO)C(O)C2O)CC(C)(NCc2ccc(-c3ccc(Cl)cc3)cc2)C1O (mixture of isomers) [Compound 148]
  zone score, E. faecalis CL 4877: 2

## CC1OC(OC2C(Oc3c4cc5cc3Oc3ccc(cc3Cl)C(O)C3NC(=O)C(NC(=O)C5NC(=O)C(CC(N)=O)NC(=O)C(NC(=O)C(O)CO)C(O)c5ccc(c(Cl)c5)O4)c4ccc(O)c(c4)-c4c(O)cc(O)cc4C(C(=O)O)NC3=O)OC(CO)C(O)C2O)CC(C)(NCc2ccc(-c3ccc(Cl)cc3)cc2)C1O (mixture of isomers) [Compound 152]
  zone score, E. faecalis CL 4877: 2

## CC(=O)NC(C)C(=O)NC1C(=O)NC(CC(N)=O)C(=O)NC2C(=O)NC3C(=O)NC(C(=O)NC(C(=O)O)c4cc(O)cc(O)c4-c4cc3ccc4O)C(O)c3ccc(c(Cl)c3)Oc3cc2cc(c3OC2OC(CO)C(O)C(O)C2OC2CC(C)(NCc3ccc(-c4ccc(Cl)cc4)cc3)C(O)C(C)O2)Oc2ccc(cc2Cl)C1O (mixture of isomers) [Compound 174]
  zone score, E. faecalis CL 4877: 2

## CC(=O)NC(CO)C(=O)NC1C(=O)NC(CC(N)=O)C(=O)NC2C(=O)NC3C(=O)NC(C(=O)NC(C(=O)O)c4cc(O)cc(O)c4-c4cc3ccc4O)C(O)c3ccc(c(Cl)c3)Oc3cc2cc(c3OC2OC(CO)C(O)C(O)C2OC2CC(C)(NCc3ccc(-c4ccc(Cl)cc4)cc3)C(O)C(C)O2)Oc2ccc(cc2Cl)C1O (mixture of isomers) [Compound 178]
  zone score, E. faecalis CL 4877: 2

## C[C@H]1O[C@H](O[C@H]2[C@H](Oc3c4cc5cc3Oc3ccc(cc3Cl)[C@@H](O)[C@@H](NC(=O)[C@@H](N)CC(=O)NC(c3ccccc3)(c3ccccc3)c3ccccc3)C(=O)N[C@@H](CC(N)=O)C(=O)N[C@H]5C(=O)N[C@H]3C(=O)N[C@H](C(=O)N[C@@H](C(=O)O)c5cc(O)cc(O)c5-c5cc3ccc5O)[C@H](O)c3ccc(c(Cl)c3)O4)O[C@H](CO)[C@@H](O)[C@@H]2O)C[C@@](C)(NCc2ccc(-c3ccc(Cl)cc3)cc2)[C@H]1O [Compound 2]
  zone score, E. faecalis CL 4877: 2

## COc1ccc(C(SC[C@H](N)C(=O)N[C@H]2C(=O)N[C@@H](CC(N)=O)C(=O)N[C@H]3C(=O)N[C@H]4C(=O)N[C@H](C(=O)N[C@@H](C(=O)O)c5cc(O)cc(O)c5-c5cc4ccc5O)[C@H](O)c4ccc(c(Cl)c4)Oc4cc3cc(c4O[C@@H]3O[C@H](CO)[C@@H](O)[C@H](O)[C@H]3O[C@@H]3C[C@@](C)(NCc4ccc(-c5ccc(Cl)cc5)cc4)[C@@H](O)[C@@H](C)O3)Oc3ccc(cc3Cl)[C@H]2O)(c2ccccc2)c2ccccc2)cc1 [Compound 6]
  zone score, E. faecalis CL 4877: 2

## CC(OC(c1ccccc1)(c1ccccc1)c1ccccc1)[C@H](N)C(=O)N[C@H]1C(=O)N[C@@H](CC(N)=O)C(=O)N[C@H]2C(=O)N[C@H]3C(=O)N[C@H](C(=O)N[C@@H](C(=O)O)c4cc(O)cc(O)c4-c4cc3ccc4O)[C@H](O)c3ccc(c(Cl)c3)Oc3cc2cc(c3O[C@@H]2O[C@H](CO)[C@@H](O)[C@H](O)[C@H]2O[C@@H]2C[C@@](C)(NCc3ccc(-c4ccc(Cl)cc4)cc3)[C@@H](O)[C@@H](C)O2)Oc2ccc(cc2Cl)[C@H]1O (stereo partly drawn) [Compound 11]
  zone score, E. faecalis CL 4877: 2

## C[C@H]1O[C@H](O[C@H]2[C@H](Oc3c4cc5cc3Oc3ccc(cc3Cl)[C@@H](O)[C@@H](NC(=O)[C@H](N)CSC(c3ccccc3)(c3ccccc3)c3ccccc3)C(=O)N[C@@H](CC(N)=O)C(=O)N[C@H]5C(=O)N[C@H]3C(=O)N[C@H](C(=O)N[C@@H](C(=O)O)c5cc(O)cc(O)c5-c5cc3ccc5O)[C@H](O)c3ccc(c(Cl)c3)O4)O[C@H](CO)[C@@H](O)[C@@H]2O)C[C@@](C)(NCc2ccc(-c3ccc(Cl)cc3)cc2)[C@H]1O [Compound 14]
  zone score, E. faecalis CL 4877: 2

## Cc1ccc(C(NCCCCC(N)C(=O)NC2C(=O)NC(CC(N)=O)C(=O)NC3C(=O)NC4C(=O)NC(C(=O)NC(C(=O)O)c5cc(O)cc(O)c5-c5cc4ccc5O)C(O)c4ccc(c(Cl)c4)Oc4cc3cc(c4OC3OC(CO)C(O)C(O)C3OC3CC(C)(NCc4ccc(-c5ccc(Cl)cc5)cc4)C(O)C(C)O3)Oc3ccc(cc3Cl)C2O)(c2ccccc2)c2ccccc2)cc1 (stereo not drawn) [Compound 40]
  zone score, E. faecalis CL 4877: 2

## CC(=O)NCSC(C)(C)C(N)C(=O)NC1C(=O)NC(CC(N)=O)C(=O)NC2C(=O)NC3C(=O)NC(C(=O)NC(C(=O)O)c4cc(O)cc(O)c4-c4cc3ccc4O)C(O)c3ccc(c(Cl)c3)Oc3cc2cc(c3OC2OC(CO)C(O)C(O)C2OC2CC(C)(NCc3ccc(-c4ccc(Cl)cc4)cc3)C(O)C(C)O2)Oc2ccc(cc2Cl)C1O (stereo not drawn) [Compound 46]
  zone score, E. faecalis CL 4877: 2

## CC(N)C(=O)NC1C(=O)NC(CC(N)=O)C(=O)NC2C(=O)NC3C(=O)NC(C(=O)NC(C(=O)O)c4cc(O)cc(O)c4-c4cc3ccc4O)C(O)c3ccc(c(Cl)c3)Oc3cc2cc(c3OC2OC(CO)C(O)C(O)C2OC2CC(C)(NCc3ccc(-c4ccc(Cl)cc4)cc3)C(O)C(C)O2)Oc2ccc(cc2Cl)C1O (stereo not drawn) [Compound 51]
  zone score, E. faecalis CL 4877: 2

## CC(=O)NCSCC(N)C(=O)NC1C(=O)NC(CC(N)=O)C(=O)NC2C(=O)NC3C(=O)NC(C(=O)NC(C(=O)O)c4cc(O)cc(O)c4-c4cc3ccc4O)C(O)c3ccc(c(Cl)c3)Oc3cc2cc(c3OC2OC(CO)C(O)C(O)C2OC2CC(C)(NCc3ccc(-c4ccc(Cl)cc4)cc3)C(O)C(C)O2)Oc2ccc(cc2Cl)C1O (stereo not drawn) [Compound 55]
  zone score, E. faecalis CL 4877: 2

## CC1OC(OC2C(Oc3c4cc5cc3Oc3ccc(cc3Cl)C(O)C3NC(=O)C(NC(=O)C5NC(=O)C(CC(N)=O)NC(=O)C(NC(=O)C(N)Cc5c[nH]cn5)C(O)c5ccc(c(Cl)c5)O4)c4ccc(O)c(c4)-c4c(O)cc(O)cc4C(C(=O)O)NC3=O)OC(CO)C(O)C2O)CC(C)(NCc2ccc(-c3ccc(Cl)cc3)cc2)C1O (stereo not drawn) [Compound 58]
  zone score, E. faecalis CL 4877: 2

## CC1OC(OC2C(Oc3c4cc5cc3Oc3ccc(cc3Cl)C(O)C(NC(=O)C3CCC(O)N3C(=O)C3CCCN3C(=O)CN)C(=O)NC(CC(N)=O)C(=O)NC5C(=O)NC3C(=O)NC(C(=O)NC(C(=O)O)c5cc(O)cc(O)c5-c5cc3ccc5O)C(O)c3ccc(c(Cl)c3)O4)OC(CO)C(O)C2O)CC(C)(NCc2ccc(-c3ccc(Cl)cc3)cc2)C1O (stereo not drawn) [Compound 69]
  zone score, E. faecalis CL 4877: 2

## CC(C)C(NC(=O)CN)C(=O)NC1C(=O)NC(CC(N)=O)C(=O)NC2C(=O)NC3C(=O)NC(C(=O)NC(C(=O)O)c4cc(O)cc(O)c4-c4cc3ccc4O)C(O)c3ccc(c(Cl)c3)Oc3cc2cc(c3OC2OC(CO)C(O)C(O)C2OC2CC(C)(NCc3ccc(-c4ccc(Cl)cc4)cc3)C(O)C(C)O2)Oc2ccc(cc2Cl)C1O (stereo not drawn) [Compound 70]
  zone score, E. faecalis CL 4877: 2

## CC1OC(OC2C(Oc3c4cc5cc3Oc3ccc(cc3Cl)C(O)C3NC(=O)C(NC(=O)C5NC(=O)C(CC(N)=O)NC(=O)C(NC(=O)C(N)Cc5c[nH]cn5)C(O)c5ccc(c(Cl)c5)O4)c4ccc(O)c(c4)-c4c(O)cc(O)cc4C(C(=O)O)NC3=O)OC(CO)C(O)C2O)CC(C)(NCc2ccc(-c3ccc(Cl)cc3)cc2)C1O (stereo not drawn) [Compound 71]
  zone score, E. faecalis CL 4877: 2

## C=CCOC(=O)NCC(N)C(=O)NC1C(=O)NC(CC(N)=O)C(=O)NC2C(=O)NC3C(=O)NC(C(=O)NC(C(=O)O)c4cc(O)cc(O)c4-c4cc3ccc4O)C(O)c3ccc(c(Cl)c3)Oc3cc2cc(c3OC2OC(CO)C(O)C(O)C2OC2CC(C)(NCc3ccc(-c4ccc(Cl)cc4)cc3)C(O)C(C)O2)Oc2ccc(cc2Cl)C1O (stereo not drawn) [Compound 92]
  zone score, E. faecalis CL 4877: 2

## CC1OC(OC2C(Oc3c4cc5cc3Oc3ccc(cc3Cl)C(O)C3NC(=O)C(NC(=O)C5NC(=O)C(CC(N)=O)NC(=O)C(NC(=O)C5CC(=O)N5)C(O)c5ccc(c(Cl)c5)O4)c4ccc(O)c(c4)-c4c(O)cc(O)cc4C(C(=O)O)NC3=O)OC(CO)C(O)C2O)CC(C)(NCc2ccc(-c3ccc(Cl)cc3)cc2)C1O (stereo not drawn) [Compound 96]
  zone score, E. faecalis CL 4877: 2

## COCCOCCOCC(=O)NC1C(=O)NC(CC(N)=O)C(=O)NC2C(=O)NC3C(=O)NC(C(=O)NC(C(=O)O)c4cc(O)cc(O)c4-c4cc3ccc4O)C(O)c3ccc(c(Cl)c3)Oc3cc2cc(c3OC2OC(CO)C(O)C(O)C2OC2CC(C)(NCc3ccc(-c4ccc(Cl)cc4)cc3)C(O)C(C)O2)Oc2ccc(cc2Cl)C1O (stereo not drawn) [Compound 101]
  zone score, E. faecalis CL 4877: 2

## C=C(NC(C)=O)C(=O)NC1C(=O)NC(CC(N)=O)C(=O)NC2C(=O)NC3C(=O)NC(C(=O)NC(C(=O)O)c4cc(O)cc(O)c4-c4cc3ccc4O)C(O)c3ccc(c(Cl)c3)Oc3cc2cc(c3OC2OC(CO)C(O)C(O)C2OC2CC(C)(NCc3ccc(-c4ccc(Cl)cc4)cc3)C(O)C(C)O2)Oc2ccc(cc2Cl)C1O (stereo not drawn) [Compound 102]
  zone score, E. faecalis CL 4877: 2

## CC1OC(OC2C(Oc3c4cc5cc3Oc3ccc(cc3Cl)C(O)C3NC(=O)C(NC(=O)C5NC(=O)C(CC(N)=O)NC(=O)C(NC(=O)c5cnccn5)C(O)c5ccc(c(Cl)c5)O4)c4ccc(O)c(c4)-c4c(O)cc(O)cc4C(C(=O)O)NC3=O)OC(CO)C(O)C2O)CC(C)(NCc2ccc(-c3ccc(Cl)cc3)cc2)C1O (stereo not drawn) [Compound 103]
  zone score, E. faecalis CL 4877: 2
